Test results from patent US9447069B2, “ROR modulators and their uses” (INNOV17 LLC, priority 2012, dated 2016).
Like-named read-outs stand apart in the source and are kept apart here.

Legend:
RORα LBD [1] = molecular target: T1, RORα LBD (Homo sapiens, UniProt P35398); assay: TR-FRET NCoR1-D2 co-repressor recruitment to RORα LBD; type: biochemical
T1 construct: purified GST-tagged (i) RORγ LBD or (ii) RORα LBD; purchased Life Technologies
T1 sequence (P35398 272-510 limits assumed): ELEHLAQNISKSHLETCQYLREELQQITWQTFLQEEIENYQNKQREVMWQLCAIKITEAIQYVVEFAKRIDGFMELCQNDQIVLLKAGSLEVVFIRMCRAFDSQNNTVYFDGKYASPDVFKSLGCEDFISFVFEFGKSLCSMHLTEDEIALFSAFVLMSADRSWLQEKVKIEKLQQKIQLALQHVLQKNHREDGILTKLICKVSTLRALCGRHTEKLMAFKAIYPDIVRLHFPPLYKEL
Excerpt: (§1) The Time-Resolved Fluorescence Resonance Energy Transfer (TR-FRET) assay kit (Life Technologies) was used to measure compound efficacy to disrupt or enhance ligand-mediated interaction of the co-activator and co-repressor peptides with the purified GST-tagged (i) RORγ LBD or (ii) RORα LBD. The RORγ LBD and RORα LBD each have a basal level of interaction with the co-activator D22 or co-repressor NCoR1-D2 in the absence of ligand, thus it is possible to identify compounds that inhibit or induce RORγ and/or RORα co-activator/co-repressor interactions, thus determining RORα, RORγ, or RORα/RORγ compound selectivity. The assay was performed as per manufacturer's instructions and TR-FRET was assessed 2 and 20 hours post-assay initiation. Compounds were identified to (i) have no impact on either co-activator displacement or […] from the assessed LBD (ii) promote co-activator displacement from the assessed LBD (iii) promote co-repressor recruitment to the assessed LBD or (iv) concurrently promote co-activator displacement from the assessed LBD and co-repressor recruitment to the assessed LBD.

RORγ LBD = molecular target: T2, RORγ LBD (Homo sapiens, UniProt P51449); assay: TR-FRET NCoR1-D2 co-repressor recruitment to RORγ LBD; type: biochemical; set-up: purified GST-tagged (i) RORγ LBD or (ii) RORα LBD; purchased Life Technologies
T2 sequence (P51449 269-508 limits assumed): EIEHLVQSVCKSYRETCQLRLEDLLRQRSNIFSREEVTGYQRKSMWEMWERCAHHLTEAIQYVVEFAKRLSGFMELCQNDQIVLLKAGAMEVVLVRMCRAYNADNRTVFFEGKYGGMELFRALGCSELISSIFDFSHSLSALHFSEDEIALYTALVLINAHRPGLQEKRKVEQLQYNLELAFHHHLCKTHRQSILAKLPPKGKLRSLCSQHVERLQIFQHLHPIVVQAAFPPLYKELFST
Excerpt: as §1

IL-22 = assay: Real-Time qRT-PCR gene expression in TH17 cells (IL-22); type: cell-based, human; set-up: key: A: No change in gene expression observed relative to DMSO treated Th17 cells; B: Decreased gene expression observed relative to DMSO treated Th17 cells; C: Increased gene expression observed relative to DMSO treated Th17 cells; settings: normalized to six reference genes
Description: (§2) Peripheral blood mononuclear cells (PBMCs) were sourced from freshly prepared leukocyte enriched plasma (buffy coat) from healthy volunteers from which PBMCs were isolated by density gradient centrifugation using Ficoll-Paque™ PLUS (GE Healthcare). Naïve CD4+ T cells were isolated using the Naïve CD4+ T cell Isolation Kit II (Miltenyi Biotec) as per manufacturer's instructions. CD4+ T cells were plated at 5×10^4 cells/well in 96 well plates pre-coated with immobilized human (h)-αCD3 antibody (eBioscience) then differentiated to TH17 cells using h-αCD28, h-αIFN-γ, h-αIL-4, h-IL-6, h-IL-23, h-IL-1β, h-TGF-β1 (eBioscience) and maintained in a cell culture incubator at 37° C. with 5% CO2 in TexMACS Medium (Miltenyi Biotec) supplemented with 1% Penicillin/Streptomycin (Lonza) over 5 days.
(§3) RNA was isolated from TH17 cells and cDNA was synthesized using the Verso cDNA kit (Thermo Scientific) as per manufacturer's instructions. IL-17A, IL-17F, IL-21, IL-22, G-CSF, IL-23R and FOXP3 gene expression were determined for compound treated and untreated TH17 cell samples using Solaris qPCR Gene expression assays (Thermo Scientific) with an iCycler iQ Real-Time PCR Detection System (Bio-Rad). Individual gene expression was normalized to a panel of six reference genes (ACTB, TBP, HPRT1, PGK1, TFRC and PPIA) (Thermo Scientific) and analyzed by REST 2009 (Qiagen) in accordance to MIQE guidelines (Bustin et al. (2009) Clin. Chem, 55:611-622). The effects of compounds on TH17 cytokine gene expression are presented as fold change in mRNA levels of compound treated TH17 cells relative to DMSO treated cells in the table below.

[2] = TH17 cell viability (Prestoblue); type: cell-based; settings: human; 1 μM compound, after 5 days, percentage of DMSO treated cells
Description: as §2
Cells were assayed for viability in the presence or absence of 1 μM compound using Prestoblue® Cell Viability Reagent (Life Technologies) as per manufacturer's instructions after 30 minutes incubation of TH17 cells with reagent. Absorbance was measured at 570 nm and 600 nm using a microplate reader (Perkin Elmer) and data were analyzed as per manufacturer's instructions. Cell viability was determined after 5 days and expressed as a percentage of DMSO treated cells.

IL-21 = assay: Real-Time qRT-PCR gene expression in TH17 cells (IL-21); type: cell-based, human; set-up: key: A: No change in gene expression observed relative to DMSO treated Th17 cells; B: Decreased gene expression observed relative to DMSO treated Th17 cells; C: Increased gene expression observed relative to DMSO treated Th17 cells; settings: normalized to six reference genes
Description: as §2, §3

RORα LBD [3] = molecular target: T1, RORα LBD; assay: TR-FRET D22 co-activator displacement from RORα LBD; type: biochemical
Excerpt: as §1

FOXP3 = assay: Real-Time qRT-PCR gene expression in TH17 cells (FOXP3); type: cell-based, human; set-up: key: A: No change in gene expression observed relative to DMSO treated Th17 cells; B: Decreased gene expression observed relative to DMSO treated Th17 cells; C: Increased gene expression observed relative to DMSO treated Th17 cells; settings: normalized to six reference genes
Description: as §2, §3

IL-23R = assay: Real-Time qRT-PCR gene expression in TH17 cells (IL-23R); type: cell-based, human; set-up: key: A: No change in gene expression observed relative to DMSO treated Th17 cells; B: Decreased gene expression observed relative to DMSO treated Th17 cells; C: Increased gene expression observed relative to DMSO treated Th17 cells; settings: normalized to six reference genes
Description: as §2, §3

[4] = TR-FRET assessed 2 hr post-assay initiation, read-out: RORα EC50 NCoR1-D2 co-repressor recruitment, 2 hr
[5] = TR-FRET assessed 20 hr post-assay initiation, read-out: RORα EC50 NCoR1-D2 co-repressor recruitment, 20 hr
[6] = TR-FRET assessed 2 hr post-assay initiation, read-out: RORγ EC50 NCoR1-D2 co-repressor recruitment, 2 hr
[7] = TR-FRET assessed 20 hr post-assay initiation, read-out: RORγ EC50 NCoR1-D2 co-repressor recruitment, 20 hr
[8] = TR-FRET assessed 2 hr post-assay initiation, read-out: RORα EC50 D22 co-activator displacement, 2 hr
[9] = TR-FRET assessed 20 hr post-assay initiation, read-out: RORα EC50 D22 co-activator displacement, 20 hr

Structure (SMILES) | EC50 (RORα LBD [1]; [4]) | EC50 (RORα LBD [1]; [5]) | EC50 (RORγ LBD; [6]) | EC50 (RORγ LBD; [7]) | EC50 (RORα LBD [3]; [8]) | EC50 (RORα LBD [3]; [9]) | Fold change in mRNA levels of compound treated TH17 cells relative to DMSO treated cells, IL-22 (IL-22) | viability at 5 days, 1 µM [2] | Fold change in mRNA levels of compound treated TH17 cells relative to DMSO treated cells, IL-21 (IL-21) | Fold change in mRNA levels of compound treated TH17 cells relative to DMSO treated cells, FOXP3 (FOXP3) | Fold change in mRNA levels of compound treated TH17 cells relative to DMSO treated cells, IL-23R (IL-23R)
OC(c1ccc(CN2CCCc3cc(-c4cn[nH]c4)ccc32)cc1)(C(F)(F)F)C(F)(F)F [Example 2, 2-(4-((6-(1H-pyrazol-4-yl)-3,4-dihydroquinolin-1(2H)-yl)methyl)phenyl)-1,1,1,3,3,3-hexafluoropropan-2-ol] | < 30 µM | < 30 µM | < 30 µM | < 30 µM | < 30 µM | < 30 µM | B | > 80% | B | C | A
Cc1cc(-c2ccc3c(c2)CCC(=O)N3Cc2ccc(C(O)(C(F)(F)F)C(F)(F)F)cc2)[nH]n1 [Example 4, 1-(4-(1,1,1,3,3,3-hexafluoro-2-hydroxypropan-2-yl)benzyl)-6-(3-methyl-1H-pyrazol-5-yl)-3,4-dihydroquinolin-2(1H)-one] | > 30 µM | < 30 µM | > 30 µM | < 30 µM | > 30 µM | > 30 µM | B | > 80% | B | A | A
O=C1CCc2cc(-c3cn[nH]c3)ccc2N1Cc1ccc(C(O)(C(F)(F)F)C(F)(F)F)cc1 [Example 5, 1-(4-(1,1,1,3,3,3-hexafluoro-2-hydroxypropan-2-yl)benzyl)-6-(1H-pyrazol-4-yl)-3,4-dihydroquinolin-2(1H)-one] | < 30 µM | > 30 µM | > 30 µM | < 30 µM | > 30 µM | > 30 µM | A | < 80% | A | A | A
Cc1n[nH]c(-c2ccc3c(c2)CCC(=O)N3Cc2ccc(C(O)(C(F)(F)F)C(F)(F)F)cc2)n1 [Example 6, 1-(4-(1,1,1,3,3,3-hexafluoro-2-hydroxypropan-2-yl)benzyl)-6-(3-methyl-1H-1,2,4-triazol-5-yl)-3,4-dihydroquinolin-2(1H)-one] | > 30 µM | > 30 µM | > 30 µM | > 30 µM | < 30 µM | < 30 µM | B | > 80% | A | C | C

The next lines start with results.

EC50 (RORα LBD [1]; [4]) | EC50 (RORα LBD [1]; [5]) | EC50 (RORγ LBD; [6]) | EC50 (RORγ LBD; [7]) | EC50 (RORα LBD [3]; [8]) | EC50 (RORα LBD [3]; [9]) | Structure (SMILES) | Fold change in mRNA levels of compound treated TH17 cells relative to DMSO treated cells, IL-22 (IL-22) | viability at 5 days, 1 µM [2] | Fold change in mRNA levels of compound treated TH17 cells relative to DMSO treated cells, IL-21 (IL-21) | Fold change in mRNA levels of compound treated TH17 cells relative to DMSO treated cells, FOXP3 (FOXP3) | Fold change in mRNA levels of compound treated TH17 cells relative to DMSO treated cells, IL-23R (IL-23R)
< 30 µM | < 30 µM | > 30 µM | < 30 µM | > 30 µM | < 30 µM | Cc1cc(-c2ccc3c(c2)CCCN3Cc2ccc(C(O)(C(F)(F)F)C(F)(F)F)cc2)[nH]n1 [Example 1, 1,1,1,3,3,3-hexafluoro-2-(4-((6-(3-methyl-1H-pyrazol-5-yl)-3,4-dihydroquinolin-1(2H)-yl)methyl)phenyl)propan-2-ol] | B | > 80% | B | C | A
> 30 µM | < 30 µM | > 30 µM | < 30 µM | > 30 µM | > 30 µM | Cc1n[nH]c(-c2ccc3c(c2)CCCN3Cc2ccc(C(O)(C(F)(F)F)C(F)(F)F)cc2)n1 [Example 3, 1,1,1,3,3,3-hexafluoro-2-(4-((6-(3-methyl-1H-1,2,4-triazol-5-yl)-3,4-dihydroquinolin-1(2H)-yl)methyl)phenyl)propan-2-ol] | B | > 80% | B | A | A
